The record followed here is patent publication EP3789378A1, “PIPERIDINES OR PIPERIDONES SUBSTITUTED WITH UREA AND HETEROARYL” (Grünenthal GmbH, priority 2019, dated 2021).

pEC50: −log10 of the molar value.

For one assay, the target named is T1, h FPR2 (Homo sapiens, UniProt P25090).
T1 construct: expressed in transfected cells
T1 sequence (P25090 1-351): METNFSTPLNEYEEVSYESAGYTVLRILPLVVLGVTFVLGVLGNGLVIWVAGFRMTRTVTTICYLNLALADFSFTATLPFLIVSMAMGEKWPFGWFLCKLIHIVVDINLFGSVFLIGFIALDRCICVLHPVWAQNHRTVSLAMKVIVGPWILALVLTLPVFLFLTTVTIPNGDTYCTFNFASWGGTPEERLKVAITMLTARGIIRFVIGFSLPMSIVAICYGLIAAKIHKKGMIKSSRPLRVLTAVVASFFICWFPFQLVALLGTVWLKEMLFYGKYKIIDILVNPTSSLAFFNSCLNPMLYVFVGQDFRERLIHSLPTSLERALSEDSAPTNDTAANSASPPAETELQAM
In words: Agonistic activity in hFPR2-Aq-CHO cells (FLIPR Calcium 5 fluorescence assay). Type of assay: cell-based. The conditions noted are these: 11 point half log dilution, final assay concentration from 10µM. The protocol:
After washing, the cells are plated at 10,000 cells per well in 40 µL complete medium in a 384-well sterile clear bottom black plate and incubated in a 5% CO2 incubator at 37°C for 18 hours. Plating media is removed from each well by decanting and gentle tapping before 30 µL of 0.5X Calcium 5 dye solution (0.5X FLIPR Calcium 5 dye (Molecular devices, R8186)); HBSS; 20mM HEPES; 2.5mM Probenecid; 0.025% Pluronic F-127; pH adjusted to 7.4) is added to each well and the plate is then incubated at 37°C for 30 minutes. For the assay the plate is equilibrated at room temperature for 10 minutes before placing it in the FLIPR. Compounds are dissolved in DMSO and serially diluted over an 11 point half log (3.16 fold) dilution (2 mM to 20 nM). Compounds are then diluted 1:50 in assay buffer (HBSS; 20mM HEPES; 2.5mM Probenecid; 0.05% gelatin; 0.1% BSA; pH adjusted to 7.4) just before performing the assay. Compounds are finally added to the respective wells of the cell plate (final assay concentration 10 µM to 100 pM) using the FLIPR (e.g. FLIPR-Tetra, Molecular Devices) and fluorescence readings are captured for 5 minutes. The increase in fluorescence from the basal reading in the presence of the compounds is compared with that of the control wells (wells having no compound) to calculate the activity of the compounds. The EC50 values of the compounds can be determined using e.g. Graph pad Prism software.
Assay method for measuring agonistic activity of compounds in hFPR2-Aq-CHO cell
Cryo-vial containing 6x10^6 cells (hFPR1-Gα15-CHO or hFPR2-Aq-CHO) was thawed in a 37°C water bath. Cells were suspended in 10ml of respective complete growth media (F12(1X)HAM media (Gibco; Cat#11765); 10% HI-FBS (Gibco; Cat#10082); 0.4 mg/ml Geneticin (Gibco; Cat#10131); 0.25 mg/ml Zeocin (Invitrogen; Cat#R25001)) in a 15ml centrifuge tube. The cell viability was checked with the help of Trypan Blue dye. Upon washing the cells, those were plated in a 384-well sterile clear bottom black plate (Greiner Bioone Cat# 781091) so that, each well contained 10,000 cells in 40µl complete growth media. The plate was incubated in a 5% CO2 incubator at 37°C for 18 hours. Before assay on the next day, the cell plating media was removed from each well of the plate by decanting and gentle tapping. 30µl of 0.5X Calcium 5 dye solution (0.5X FLIPR Calcium 5 dye (Molecular devices Cat# R8186); HBSS (Invitrogen; Cat#14025); 20mM HEPES (Sigma; Cat#H0887); 2.5mM Probenecid (Sigma; Cat#P8761); 0.025% Pluronic F-127 (Sigma; Cat#P2443); pH adjusted to 7.4) was added to each well. The plate was then incubated at 37°C for 30 minutes. Following which the plate was equilibrated at room temperature for 10 minutes before placing it in a 384 well FLIPR for assay. Compounds were dissolved in DMSO and serially diluted following 11 point half log (3.16 fold) dilution with a starting concentration of 2mM (Final assay concentration 10µM). Aliquots of above mentioned each dilution was mixed with assay buffer (HBSS (Invitrogen; Cat#14025); 20mM HEPES (Sigma; Cat#H0887); 2.5mM Probenecid (Sigma; Cat#P8761); 0.05% gelatin (Sigma; Cat#G1890); 0.1% BSA (Sigma; Cat#A3059); pH adjusted to 7.4) just before performing the assay. Compounds were added to the respective wells of the assay ready cell plate with the help of the FLIPR (FLIPR Tetra) and fluorescence readings were captured for 5 minutes to measure any agonistic response of the compounds. The increase in fluorescence readings from the basal reading in presence of the compounds were compared with that of the control wells (wells having no compound) to calculate the agonistic activity of the compounds. The EC50 values of the compounds were determined using the Graph pad Prism software.
As a reminder, the pEC50 is the negative decadic logarithm of the EC50, by convention in mol/L. Take `COc1ccc([C@@H]2CN(Cc3cnn(C)c3)CC[C@H]2NC(=O)Nc2ccc(C#N)cc2)nc1` (relative stereo) [Ex-146, trans-1-(4-Cyano-phenyl)-3-[3-(5-methoxy-pyridin-2-yl)-1-[(1-methyl-1H-pyrazol-4-yl)-methyl]-piperidin-4-yl]-urea]: the pEC50 was 8.70.

Consider `Cc1cc(NC(=O)N[C@@H]2CCN(c3ccc(F)cc3)C[C@H]2c2ccc(Cl)cn2)sn1` (relative stereo) [Ex-26, trans-1-[5-chloro-1'-(4-fluoro-phenyl)-1',2',3',4',5',6'-hexahydro-[2,3']bipyridinyl-4'-yl]-3-(3-methyl-isothiazol-5-yl)-urea], for which the pEC50 was 9.00.

`COc1ccc([C@@H]2CN(CC(F)F)CC[C@H]2NC(=O)Nc2ccc(C#N)cc2)nc1` (racemic) [Ex-113, trans-1-(4-cyanophenyl)-3-[1-(2,2-difluoroethyl)-3-(5-methoxy-2-pyridyl)-4-piperidyl]urea]: the pEC50 is 8.92.

With `COc1ccc([C@@H]2CN(CC3(O)CCC3)CC[C@H]2NC(=O)Nc2ccc(Cl)cc2)nc1` (relative stereo) [Ex-220, trans-1-(4-chloro-phenyl)-3-[1'-(1-hydroxy-cyclobutylmethyl)-5-methoxy-1',2',3',4',5',6'-hexahydro-[2,3']bipyridinyl-4'-yl]-urea], the pEC50 is 9.40.

For `COc1ncc(CN2CC[C@@H](NC(=O)Nc3ccc(Cl)cc3)[C@H](c3ccc(Cl)s3)C2)cn1` (relative stereo) [Ex-75, trans-1-(4-chlorophenyl)-3-[3-(5-chlorothiophen-2-yl)-1-[(2-methoxypyrimidin-5-yl)methyl]piperidin-4-yl]urea], the pEC50 was 8.52.

For `Cc1cnc(N2CC[C@@H](NC(=O)Nc3cc(C)ns3)[C@H](c3ccc(Cl)cn3)C2)cn1` (relative stereo) [Ex-41, trans-1-[5-chloro-1'-(5-methyl-pyrazin-2-yl)-1',2',3',4',5',6'-hexahydro-[2,3']bipyridinyl-4'-yl]-3-(3-methyl-isothiazol-5-yl)-urea], the pEC50 was 8.52.

Take `COc1ccc([C@@H]2CN(CCO)CC[C@H]2NC(=O)Nc2cc(C)ns2)nc1` (relative stereo) [Ex-122, trans-1-[1-(2-Hydroxy-ethyl)-3-(5-methoxy-pyridin-2-yl)-piperidin-4-yl]-3-(3-methyl-isothiazol-5-yl)-urea]: the negative-log EC50 (pEC50) is 8.52.

With `COc1ccc([C@@H]2CN(CC3(O)COC3)CC[C@H]2NC(=O)Nc2ccc(Cl)cc2)nc1` (relative stereo) [Ex-194, trans-1-(4-chloro-phenyl)-3-[1'-(3-hydroxy-oxetan-3-ylmethyl)-5-methoxy-1',2',3',4',5',6'-hexahydro-[2,3']bipyridinyl-4'-yl]-urea], the pEC50 was 8.89.

As to `COc1ccc([C@H]2CN(Cc3cncc(F)c3)CC[C@@H]2NC(=O)Nc2ccc(Cl)cc2)nc1` (relative stereo) [Ex-68, trans-(4-chlorophenyl)-3-[1-[(5-fluoropyridin-3-yl)methyl]-3-(5-methoxypyridin-2-yl)piperidin-4-yl]urea], the pEC50 was 10.05.

`Cc1ccc(CN2CC[C@@H](NC(=O)Nc3ccc(Cl)cc3)[C@H](c3ccc(Cl)s3)C2)cn1` (relative stereo) [Ex-87, trans-1-(4-chlorophenyl)-3-[3-(5-chlorothiophen-2-yl)-1-[(6-methylpyridin-3-yl)methyl]piperidin-4-yl]urea]: the pEC50 is 9.00.

Take `COc1cnc([C@@H]2CN(CCCN(C)C)CC[C@H]2NC(=O)Nc2ccc(Cl)cc2)c(F)c1` (relative stereo) [Ex-212, trans-1-(4-chloro-phenyl)-3-[1'-(3-dimethylamino-propyl)-3-fluoro-5-methoxy-1',2',3',4',5',6'-hexahydro-[2,3']bipyridinyl-4'-yl]-urea]: the pEC50 is 9.52.

In the case of `COc1ccc([C@@H]2CN(C3COC3)CC[C@H]2NC(=O)Nc2cc(C)ns2)nc1` (relative stereo) [Ex-133, trans-1-[3-(5-Methoxy-pyridin-2-yl)-1-(oxetan-3-yl)-piperidin-4-yl]-3-(3-methyl-isothiazol-5-yl)-urea], the pEC50 was 7.89.

For `COc1ccc([C@@H]2CN(C(=O)CN(C)C)CC[C@H]2NC(=O)Nc2ccc(Cl)cc2)nc1` (single isomer, unassigned) [Ex-189, trans-1-(4-chlorophenyl)-3-[1-[2-(dimethylamino)acetyl]-3-(5-methoxypyridin-2-yl)piperidin-4-yl]urea], the pEC50 is 8.77.

For the compound `Cc1cc(CN2CC[C@@H](NC(=O)Nc3ccc(Cl)cc3)[C@H](c3ccc(Cl)cn3)C2)no1` (single isomer, unassigned) [Ex-22, trans-1-(4-chlorophenyl)-3-[3-(5-chloropyridin-2-yl)-1-[(5-methyl-1,2-oxazol-3-yl)methyl]piperidin-4-yl]urea], the pEC50 is 9.70.

For `COc1ccc([C@@H]2CN(c3cncc(C)n3)CC[C@H]2NC(=O)Nc2ccc(Cl)cc2)nc1` (relative stereo) [Ex-224, trans-1-(4-chloro-phenyl)-3-[5-methoxy-1'-(6-methyl-pyrazin-2-yl)-1',2',3',4',5',6'-hexahydro-[2,3']bipyridinyl-4'-yl]-urea], the pEC50 is 8.30.

In the case of `COc1ccc([C@@H]2CN(C(=O)CCN(C)C)CC[C@H]2NC(=O)Nc2ccc(Cl)cc2)nc1` (relative stereo) [Ex-95, trans-1-(4-chloro-phenyl)-3-[1'-(3-dimethylamino-propionyl)-5-methoxy-1',2',3',4',5',6'-hexahydro-[2,3']bipyridinyl-4'-yl]-urea], the pEC50 was 7.92.

Regarding `COc1cnc([C@@H]2CN(CC3CC3)CC[C@H]2NC(=O)Nc2ccc(Cl)cc2)c(F)c1` (relative stereo) [Ex-209, trans-1-(4-chloro-phenyl)-3-(1'-cyclopropylmethyl-3-fluoro-5-methoxy-1',2',3',4',5',6'-hexahydro-[2,3']bipyridinyl-4'-yl)-urea], the pEC50 is 9.52.

On to `COc1ccc([C@@H]2CN(CC3CC(C)(O)C3)CC[C@H]2NC(=O)Nc2ccc(Cl)cc2)nc1` (relative stereo) [Ex-207, trans-1-(4-chloro-phenyl)-3-[1'-(3-hydroxy-3-methyl-cyclobutylmethyl)-5-methoxy-1',2',3',4',5',6'-hexahydro-[2,3']bipyridinyl-4'-yl]-urea], for which the pEC50 was 8.05.

The same assay, now with this note: agonistic response at 0.1µM.
As for `O=C(Nc1ccccc1)N[C@@H]1CCN(C2CNC2)C[C@H]1c1ccc(Cl)cn1` (relative stereo) [Ex-185, trans-1-(1'-azetidin-3-yl-5-chloro-1',2',3',4',5',6'-hexahydro-[2,3']bipyridinyl-4'-yl)-3-phenyl-urea], the activation at 0.1 µM was determined as 19%.

For `Cc1cc(CN2CC[C@@H](NC(=O)Nc3ccc(Cl)cc3)[C@H](c3ccc(Cl)cn3)C2)no1` (relative stereo) [Ex-23, trans-1-(4-chlorophenyl)-3-[3-(5-chloropyridin-2-yl)-1-[(5-methyl-1,2-oxazol-3-yl)methyl]piperidin-4-yl]urea], the activation at 0.1 µM came out at 28%.
